Data taken from patent US9259433B2, “Synergistic antiviral compositions comprising a viral attachment inhibitor, an integration inhibitor, and a proviral transcription inhibitor, and their use” (priority 2007, dated 2016).
Where two headings read alike, the source gives them in different places.

What was measured:
HIV transcription = details: cited from earlier work
wild type HIV-1 envelope = test: HIV-based cell-cell fusion (syncytium) assay, co-culture of HeLa-CD4+ cells and CHO-WT cells; details: for antiviral entry activity: HIV entry / syncytium formation
From the text: Tieghemella heckelii (Sapotaceae, Th) is a large tree found in the West African rain forest. In January and February, the plant blossoms and develops ovoid fruits of 8 cm length and 7 cm diameter, which ripen in July-October. Many parts of the tree are used in traditional medicine. We have used a series of high-speed counter-current chromatography (HSCC), viral entry and infectivity assay and HIV-based cell-cell fusion assay to isolate specific HIV viral entry inhibitors from the ovoid fruits of the plants. The procedures for the isolation have been described in detail (4). Two pure saponin compounds, Arganine C (Rev 1) and Tieghemella (Gen. 1) have been isolated with the yield of 0.48% and 0.6% respectively.
In HIV infection, syncytia are the result of viral attachment and cell membrane fusion which create giant multi-nucleated cells consisting of both infected and uninfected cells. Rev. 1 and Gen. […] Rev-1 and Gen-1 are structurally identical except for one attached group at C23 (FIG. 1A). C23 glucose for Rev-1 and glucuronic acid for Gen-1 (4, 5). Their antiviral activity requires the C28 sugar chain. […] The four sugars in the substituent at the C28 position are L-arabinose, L-rhamnose, D-xylose and L-rhamnose (FIG. 1B).

HIV particles = test: HIV-1 attachment to pre-cooled HeLa CD4+ cells, viral capsid in cell lysates; details: HeLa CD4+ cells at 4° C., 30-minute attachment, up to 20 μM
Description: To determine whether the two saponins act exclusively at the attachment step, target HeLa CD4^+ cells were initially pre-cooled at 4° C. before viral exposure to exclude the possibility of virus internalization. Each compound, at graded concentrations, was then mixed with HIV particles and added to target cells in cold media. After a 30-minute attachment period, the cells were profusely washed to remove unbound virus. […] H9 cells (4×10^5) were first incubated with compound and then infected with virus for one hour at 37° C. in CO2 incubator to permit virus fusion and entry. The cells were then centrifuged and washed 3 times with phosphate buffered saline (PBS) to remove the unbound virus as described previously (6,7). The viral entry was determined by p24 antigen-capture assay. For the drug effect on HIV-1 replication and infection, the culture was incubated for 8 days. Viral replication was determined by the amount of HIV-1 p24 antigen in culture supernatant after 8 days of virus infection in H9 cells using the HIV/p24 monoclonal antibody assay (8). […] Only low concentrations were used for testing to minimize the cellular toxicities of the drug.

red blood cells = test: Hemolysis, release of hemoglobin from red blood cells; type: cell-based
Description: As such, Rev-1 and Gen-1 are both hemolytic, a property which may restrict potential use in therapy. To see whether modification of C28 sugar side chain can abolish such hemolytic effect, we acetylated the hydroxyl group of the C28 sugars with acetic anhydride. Briefly, 10 ml of pyridine and 5 ml acetic anhydride were added to a solution of pure tieghemella (Gen-1, 100 mg) in 5 ml methanol at 0° C. The solution mixture was allowed to reflux for […]. The resultant mixture was extracted with water at 20° C. as described in reference 9. The aqueous solution was washed several times with dichloromethane. The water filtrate was dried under the hood to afford oAc-Gen-1; (160 mg). We compared the hemolytic effect of Gen-1 and oAc-Gen-1 by measuring the release of hemoglobin from red blood cells in the presence of Gen.1 or o-Ac Gen.

HIV-1RTMF = test: Drug combination study in H9 cells infected with HIV-1RTMF, p24 assay; type: cell-based; details: Human immunodeficiency virus 1, H9, 192 h
From the text: We tested drug combinations against two different cells infected with laboratory strain of HIV-1 RTMF. For these drug combinational studies, both the H9 cells and human PBMC have been used. We first tested how our inhibitors affect one specific strain of HIV which is resistant to drug against RT (HIV-1RTMF). Briefly H9 (1×10^5/ml) were infected with HIV-1RTMF strain with a multiplicity of infection of 0.1. These cells were further tested with three drugs, M522, Gen-1 and G4N, either in combination or separately (8, 10, 21B). After 4-day incubation at 37° C., H9 cells were subcultured with fresh culture medium containing appropriate concentrations 0, 1.25, 2.5, 5, 10, 20, 40 and 80 μM of each of the drugs, or of a combination of all three of the drugs, each at the indicated concentration. The inhibition for HIV-1 by these combinations of drugs was examined using p24 assay after 8 days.
(§1) Similarly, PBMC cells were isolated from a healthy blood sample and these cells were stimulated by PHA and IL-2. PBMC (5×10^6/ml) were infected with HIV-1RTMF. The cells were treated with three combinations of drugs, M522, Gen-1 and G4N. Fresh media and drugs were added after 4 days with drug concentrations 0, 1.25, 2.5, 5, 10, 20, 40 and 80 μM. The inhibition for HIV-1 by these combinations of drugs was also examined by using p24 assay after 8 days. […] In comparison, cytotoxicity for the three drugs combined to H9 cells was also analyzed using an MTT assay.

H9 cells = type: cell-based; details: 192 h
Description: A series of drug concentrations ranging from 1.25 μg/ml to 160 μg/ml were used for testing the cytotoxicity of M522 and M532 in H9 cells, using the MTT assay to determine the viability of H9 cells in culture. […] In fact, the drug-protected, HIV-infected H9 cells appeared to be morphologically identical to the uninfected control cells (6).
as §1

HIV-1 integrase = HIV-1 integrase (Human immunodeficiency virus type 1 group M subtype B, UniProt P04585); test: HIV-1 integrase catalytic activity of 3'-joining to the target DNA; type: biochemical; details: read-out: IC50, 3′-joining to the target DNA
From the text: (§2) a. Salvia genus of Labiaceae family contains approximately 1000 species. 78 of these are distributed in different regions in China. […] An INi search was established based on an assay-guided purification procedure utilizing different concentrations of methanol, propanol, a two-layer extraction system (low salt water/butanol), and a high resolution inverted phase HPLC (Sperisorb OD S-2).

[1] = target: deletion mutant HIV-1 integrase (IN^50-212) (Human immunodeficiency virus type 1 group M subtype B, UniProt P04585); test: Disintegration assay; type: biochemical; details: IN^50-212 core domain; equal efficacy with wild type
Description: (§3) To determine whether M522 and M532 are acting against the catalytic core domain specifically, disintegration assay was tested using deletion mutant IN containing only the core domain of HIV integrase. Such deletion mutant is defective for normal integration, but it is capable of catalyzing a reversal of the forward reaction, termed “disintegration”. The disintegration reaction can be assayed by using a deletion mutant HIV-1 integrase (IN^50-212) which lacks both the amino terminal zinc binding and the carboxyl terminal DNA binding domains but remains active in this assay, whereas such truncated IN loses activity in the 3′-processing and joining (strand transfer) assays. So, disintegration assay can be used to probe the site of drug-enzyme binding.

[2] = target: wild type HIV-1 integrase (Human immunodeficiency virus type 1 group M subtype B, UniProt P04585); test: Disintegration assay; type: biochemical; details: equal efficacy with deletion mutant
Description: as §3

HIV-1 = test: Acute HIV-1 infection of H9 cells; type: cell-based
From the text: as §2

HIV = HIV entry in H9 cells; type: cell-based; details: compound by itself
From the text: as §2

[3] = system: HIV-1RTMF (AZT-resistant virus); test: HIV replication in infected H9 cells, HIV/p24 monoclonal antibody assay; type: cell-based; details: H9 cells infected with HIV-1RTMF in the presence of drug
Description: The inhibitory effect of M522 and M532 against HIV replication was further examined using 5 different strains of HIV-1, drug resistant and primary isolates in the presence of a variety of drug concentrations in infected H9 cells.
A series of drug concentrations ranging from 1.25 μg/ml to 160 μg/ml were used for testing the cytotoxicity of M522 and M532 in H9 cells, using the MTT assay to determine the viability of H9 cells in culture.

reverse transcriptase = target: T1, reverse transcriptase (Human immunodeficiency virus type 1 group M subtype B, UniProt P04585); test: Reverse transcriptase activity and viral DNA levels in infected cells; type: cell-based, HIV
T1 construct: endogenous in cells; host or cells: HIV-infected cells (H9 cells named in the same paragraph)
From the text: as §2

[4] = system: Sp1 binding sites of the HIV long terminal repeat (LTR); details: in vitro; cited from earlier work
HSV-2 = test: Mouse vaginal model of HSV-2 infection; type: in vivo, female CF-1 mice; details: 10 mM
From the text: P4N was also found to be quite effective.

SMILES: COc1cc(C[C@H](C)[C@H](C)Cc2ccc(O)c(O)c2)ccc1O [3′-O-methyl NDGA]
- inhibition of HIV transcription (HIV transcription): specifically block HIV transcription

SMILES: CC1(C)CC[C@]2(C(=O)O)[C@H](O)C[C@]3(C)C(=CC[C@@H]4[C@@]5(C)C[C@H](O)[C@H](O[C@@H]6O[C@H](C(=O)O)[C@@H](O)[C@H](O)[C@H]6O)[C@@](C)(CO)[C@@H]5[C@H](O)C[C@]43C)[C@@H]2C1 [A-GEN, 16α-hydroxyprotobassic acid 3-0-β-D-glucuronopyranoside]
- antiviral entry activity (wild type HIV-1 envelope): total loss of antiviral entry activity
- inhibition of attachment (HIV particles): totally devoid of activity

SMILES: CC1(C)CC[C@]2(C(=O)O)[C@H](O)C[C@]3(C)C(=CC[C@@H]4[C@@]5(C)C[C@H](O)[C@H](O[C@@H]6O[C@H](CO)[C@@H](O)[C@H](O)[C@H]6O)[C@@](C)(CO)[C@@H]5[C@H](O)C[C@]43C)[C@@H]2C1 [A-REV, 16α-hydroxyprotobassic 3-0-β-D-glycopyransoide]
- antiviral entry activity (wild type HIV-1 envelope): total loss of antiviral entry activity

SMILES: C[C@@H]1O[C@@H](O[C@@H]2[C@@H](O)[C@H](O[C@@H]3[C@@H](O)[C@@H](O)[C@H](O[C@H]4[C@H](OC(=O)[C@]56CCC(C)(C)C[C@H]5C5=CC[C@@H]7[C@@]8(C)C[C@H](O)[C@H](O[C@@H]9O[C@H](C(=O)O)[C@@H](O)[C@H](O)[C@H]9O)[C@@](C)(CO)[C@@H]8[C@H](O)C[C@@]7(C)[C@]5(C)C[C@H]6O)OC[C@H](O)[C@@H]4O)O[C@H]3C)OC[C@H]2O)[C@H](O)[C@H](O)[C@H]1O [Gen-1, Tieghemelin]
- antiviral entry activity (wild type HIV-1 envelope): less potent
- IC50 (wild type HIV-1 envelope; Human immunodeficiency virus 1): 17 µM
- hemolytic effect (red blood cells): hemolytic
- red blood cells lysed (red blood cells; 57 μM): 50%
- inhibition of attachment (HIV particles): dose-dependent inhibition of attachment
- IC50 (HIV-1RTMF): 40 µM

SMILES: O=C(/C=C/c1ccc(O)c2c1[C@H](C(=O)O[C@H](Cc1ccc(O)c(O)c1)C(=O)O)[C@@H](c1ccc(O)c(O)c1)O2)O[C@H](Cc1ccc(O)c(O)c1)C(=O)O [M532, lithospermic acid B]
- CC100 (highest concentration tested, cells remained viable) (H9 cells): 160 µg/mL
- IC50 (HIV-1 integrase): 0.37 µM
- inhibition of disintegration [1]: inhibited
- inhibition of disintegration [2]: inhibited
- IC50 (HIV-1): 6.9 µM
- prevention of HIV entry (HIV): Neither M522 nor M532 by itself prevents HIV entry
- syncytia formation [3]: syncytia formation was prevented
- levels of intracellular strong stop and full-length viral DNA (reverse transcriptase; following drug treatment): remained unchanged
- inhibition of reverse transcriptase activity (reverse transcriptase; infected cells): no inhibition of reverse transcriptase activity

SMILES: CC(Cc1ccc(O)c(O)c1)C(C)Cc1ccc(O)c(O)c1 (stereo not shown) [NDGA, nordihydroguaiaretic acid, reference compound]
- effect on Sp1 binding [4]: no effect on Sp1 binding
- inhibition of HIV transcription (HIV transcription): does not inhibit HIV transcription

SMILES: C[C@H](Cc1ccc(OCCN2CCCCC2)c(OCCN2CCCCC2)c1)[C@@H](C)Cc1ccc(OCCN2CCCCC2)c(OCCN2CCCCC2)c1 [P4N]
- average scale (HSV-2): 0.19
- animals infected (HSV-2; 10 mice per group): 2 of 10
- effect on Sp1 binding [4]: disrupt Sp1 transcription factor binding

SMILES: C[C@@H]1O[C@@H](O[C@@H]2[C@@H](O)[C@H](O[C@@H]3[C@@H](O)[C@@H](O)[C@H](O[C@H]4[C@H](OC(=O)[C@]56CCC(C)(C)C[C@H]5C5=CC[C@@H]7[C@@]8(C)C[C@H](O)[C@H](O[C@@H]9O[C@H](CO)[C@@H](O)[C@H](O)[C@H]9O)[C@@](C)(CO)[C@@H]8[C@H](O)C[C@@]7(C)[C@]5(C)C[C@H]6O)OC[C@H](O)[C@@H]4O)O[C@H]3C)OC[C@H]2O)[C@H](O)[C@H](O)[C@H]1O [Rev.1, arganine C]
- antiviral entry activity (wild type HIV-1 envelope): strongly inhibited
- IC50 (wild type HIV-1 envelope; HIV-based cell-cell fusion assay (FIG. 1), read-out: IC50): 2.8 µM
- hemolytic effect (red blood cells; effective drug concentrations that blocked viral entry): hemolytic
- inhibition of attachment (HIV particles): dose-dependent inhibition of attachment
